Laboratory results reported in article PMC4222822, “Discovery and Characterization of a Potent and Selective Inhibitor of Aedes aegypti Inward Rectifier Potassium Channels” (PLoS ONE, 2014).

Target: T1, Kir3.1/3.2 (Homo sapiens, UniProt P48051+P48549)
T1 construct: expressed in transfected cells
T1 sequence (P48549 1-501): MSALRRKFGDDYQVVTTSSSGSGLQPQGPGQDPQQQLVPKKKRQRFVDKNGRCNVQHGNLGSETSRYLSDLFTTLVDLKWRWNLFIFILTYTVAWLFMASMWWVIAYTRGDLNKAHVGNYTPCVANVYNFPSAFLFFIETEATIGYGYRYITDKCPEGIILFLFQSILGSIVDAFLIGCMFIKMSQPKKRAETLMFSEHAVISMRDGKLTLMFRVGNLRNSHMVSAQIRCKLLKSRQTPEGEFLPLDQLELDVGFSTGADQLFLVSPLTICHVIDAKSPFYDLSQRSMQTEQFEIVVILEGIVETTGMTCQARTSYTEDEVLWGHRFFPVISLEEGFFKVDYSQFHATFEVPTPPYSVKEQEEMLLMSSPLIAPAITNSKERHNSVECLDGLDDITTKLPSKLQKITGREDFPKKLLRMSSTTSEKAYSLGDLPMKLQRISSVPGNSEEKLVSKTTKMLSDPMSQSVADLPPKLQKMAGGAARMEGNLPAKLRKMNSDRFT
T1 sequence (P48051 1-423): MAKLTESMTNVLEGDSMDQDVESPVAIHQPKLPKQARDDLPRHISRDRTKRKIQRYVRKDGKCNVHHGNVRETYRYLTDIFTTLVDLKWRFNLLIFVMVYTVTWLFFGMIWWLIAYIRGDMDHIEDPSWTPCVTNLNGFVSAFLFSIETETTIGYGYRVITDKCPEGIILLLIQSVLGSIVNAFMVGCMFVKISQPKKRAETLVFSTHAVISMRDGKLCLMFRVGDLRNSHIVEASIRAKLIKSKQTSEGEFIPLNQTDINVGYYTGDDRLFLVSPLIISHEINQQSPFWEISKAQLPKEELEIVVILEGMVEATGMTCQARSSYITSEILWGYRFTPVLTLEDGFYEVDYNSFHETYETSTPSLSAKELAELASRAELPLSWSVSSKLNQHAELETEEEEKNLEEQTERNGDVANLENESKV
Test: Tl+ flux selectivity assay, Kir3.1/3.2
Assay type: cell-based
Conditions: Kir3.1/3.2 (with mGlu8, EC80 glutamate); n = 2 independent experiments in triplicate; read-out: Inhibition of Tl+ flux (IC50)
Experimental: [Worded in the source for another target; used here, by the source, with some conditions changed.] Tl^+ flux assays were performed essentially as described previously, [18], [19]. Briefly, stably transfected T-Rex-HEK-293 cells expressing AeKir1 channels were cultured overnight in 384-well plates (20,000 cells/20 µL/well black-walled, clear-bottomed BD PureCoat amine-coated plates (BD, Bedford, MA) with a plating media containing DMEM, 10% dialyzed FBS and 1 µg/mL tetracycline. The next day, the cell culture medium was replaced with a dye-loading solution containing assay buffer (Hanks Balanced Salt Solution with 20 mM HEPES, pH 7.3), 0.01% (w/v) Pluronic F-127 (Life Technologies, Carlsbad, CA), and 1.2 µM of the thallium-sensitive dye Thallos-AM (TEFlabs, Austin, TX). Following 1 hr incubation at room temperature, the dye-loading solution was washed from the plates and replaced with 20 µL/well of assay buffer. […] Tl^+ flux data were analyzed as previously described, [21], [22] using a combination of Excel (Microsoft Corp, Redmond, WA) with XLfit add-in (IDBS, Guildford, Surrey, UK) and OriginPro (OriginLab, Northampton, MA) software. […] The slope of the fluorescence increase beginning 5 s after Tl^+ addition and ending 15 s after Tl^+ addition was calculated.

CCC(=O)N1c2ccc(S(=O)(=O)Nc3cccc(OC)c3)cc2CC1C (stereo not shown) [VU625, N-(3-methoxyphenyl)-2-methyl-1-propionylindoline-5-sulfonamide]
IC50: 8.6 µM
